Converted amounts (≈) assume the structure as drawn.
How the values were obtained:
Type in all cases: functional
A549 = test: Cytotoxicity against human A549 cells
MCF7 = test: Cytotoxicity against human MCF7 cells; settings: read-out: ED50 (the source's name)
HT-29 = test: Cytotoxicity against human HT-29 cells; settings: read-out: ED50 (the source's name)

| SMILES | ED50 (A549) | EC50 (MCF7) | EC50 (HT-29) |
| --- | --- | --- | --- |
| CCCCCC[C@H](O)CCC[C@H](O)[C@H]1CC[C@H]([C@H]2CC(O)[C@H]([C@H](O)CCCCCCCCCCCCC3=C[C@H](C)OC3=O)O2)O1 (stereo partly specified) [ANNONIN XVI] | <1 ×10⁻⁸ ug/ml | 1.46 µg/mL (≈ 2.29 µM) | 1.42 µg/mL (≈ 2.22 µM) |
| COc1cccc2c1C(=O)c1c(O)c3c(c(O)c1C2=O)C[C@@](O)(C(=O)CO)C[C@@H]3O[C@H]1C[C@H](N)[C@H](O)[C@H](C)O1 [DOXORUBICIN] | 2.08 ×10⁻⁴ ug/ml | 0.0913 µg/mL (≈ 0.168 µM) | 0.0013 µg/mL (≈ 0.00239 µM) |

Source: ChEMBL document CHEMBL1148179, “Structural revisions of some non-adjacent bis-tetrahydrofuran annonaceous acetogenins” (1993)
